Measured values published in ChEMBL document CHEMBL2069240, “Design, solvent free synthesis, and antimicrobial evaluation of 1,4 dihydropyridines” (2012).
Converted amounts (≈) assume the structure as drawn.

Key:
Salmonella typhi = assay: Antibacterial activity against Salmonella typhi ATCC 700931; assay type: functional, Salmonella enterica subsp. enterica serovar Typhi; conditions: Salmonella enterica
Klebsiella pneumoniae [1] = assay: Antibacterial activity against ampicillin-resistant Klebsiella pneumoniae clinical isolate; assay type: functional
Escherichia coli [2] = assay: Ratio of ampicillin MIC to compound MIC for ampicillin-resistant Escherichia coli clinical isolate; assay type: functional
Enterococcus faecalis = assay: Antibacterial activity against Enterococcus faecalis ATCC 51299; assay type: functional
Pseudomonas aeruginosa = assay: Antibacterial activity against Pseudomonas aeruginosa ATCC 27853; assay type: functional
Escherichia coli [3] = assay: Antibacterial activity against ampicillin-resistant Escherichia coli clinical isolate; assay type: functional
Escherichia coli [4] = assay: Antibacterial activity against Escherichia coli ATCC 25922; assay type: functional
Citrobacter koseri = assay: Antibacterial activity against Citrobacter koseri ATCC 27028; assay type: functional
Staphylococcus aureus = assay: Antibacterial activity against Staphylococcus aureus ATCC 25923; assay type: functional
Klebsiella pneumoniae [5] = assay: Antibacterial activity against Klebsiella pneumoniae ATCC 7761; assay type: functional
Bacillus subtilis = assay: Antibacterial activity against Bacillus subtilis ATCC 9372; assay type: functional
Klebsiella pneumoniae [6] = assay: Ratio of ampicillin MIC to compound MIC for ampicillin-resistant Klebsiella pneumoniae clinical isolate; assay type: functional
Streptococcus pyogenes = assay: Antibacterial activity against Streptococcus pyogenes ATCC 19615; assay type: functional
Shigella dysenteriae = assay: Antibacterial activity against Shigella dysenteriae ATCC 32412; assay type: functional

| SMILES | MIC (Salmonella typhi) [µg/mL] | MIC (Klebsiella pneumoniae [1]) [µg/mL] | Ratio (Escherichia coli [2]) | MIC (Enterococcus faecalis) [µg/mL] | MIC (Pseudomonas aeruginosa) [µg/mL] | MIC (Escherichia coli [3]) [µg/mL] | MIC (Escherichia coli [4]) [µg/mL] | MIC (Citrobacter koseri) [µg/mL] | MIC (Staphylococcus aureus) [µg/mL] | MIC (Klebsiella pneumoniae [5]) [µg/mL] | MIC (Bacillus subtilis) [µg/mL] | Ratio (Klebsiella pneumoniae [6]) | MIC (Streptococcus pyogenes) [µg/mL] | MIC (Shigella dysenteriae) [µg/mL] |
| --- | --- | --- | --- | --- | --- | --- | --- | --- | --- | --- | --- | --- | --- | --- |
| CCOC(=O)C1=C(C)NC(C)=C(C(=O)OCC)C1c1ccccc1 | 2500 (≈ 7590 µM) | 125 (≈ 379 µM) | 4 | 2500 (≈ 7590 µM) | 1250 (≈ 3790 µM) | 125 (≈ 379 µM) | 2500 (≈ 7590 µM) | 2500 (≈ 7590 µM) | 1250 (≈ 3790 µM) | 1250 (≈ 3790 µM) | 2500 (≈ 7590 µM) | 4 | 2500 (≈ 7590 µM) | 1250 (≈ 3790 µM) |
| CCOC(=O)C1=C(C)NC(C)=C(C(=O)OCC)C1c1cccc([N+](=O)[O-])c1 | 1250 (≈ 3340 µM) | 125 (≈ 334 µM) | 4 | 2500 (≈ 6680 µM) | 5000 (≈ 13400 µM) | 125 (≈ 334 µM) | 2500 (≈ 6680 µM) | 2500 (≈ 6680 µM) | 1250 (≈ 3340 µM) | 2500 (≈ 6680 µM) | 2500 (≈ 6680 µM) | 4 | 2500 (≈ 6680 µM) | 2500 (≈ 6680 µM) |
| CCOC(=O)C1=C(C)N=C(C)/C(=C(/O)OCC)C1 | 2500 (≈ 9870 µM) | 62.5 (≈ 247 µM) | 4 | 1250 (≈ 4930 µM) | 1250 (≈ 4930 µM) | 125 (≈ 493 µM) | 1250 (≈ 4930 µM) | 1250 (≈ 4930 µM) | 1250 (≈ 4930 µM) | 1250 (≈ 4930 µM) | 1250 (≈ 4930 µM) | 4 | 1250 (≈ 4930 µM) | 1250 (≈ 4930 µM) |
| CCOC(=O)C1=C(C)NC(C)=C(C(=O)OCC)C1c1ccc(Cl)cc1 | 500 (≈ 1370 µM) | 31.2 (≈ 85.9 µM) | 4 | 125 (≈ 344 µM) | 500 (≈ 1370 µM) | 62.5 (≈ 172 µM) | 125 (≈ 344 µM) | 125 (≈ 344 µM) | 125 (≈ 344 µM) | 125 (≈ 344 µM) | 500 (≈ 1370 µM) | 4 | 125 (≈ 344 µM) | 500 (≈ 1370 µM) |
| CCOC(=O)C1=C(C)NC(C)=C(C(=O)OCC)C1c1ccccc1O | 500 (≈ 1450 µM) | 31.2 (≈ 90.5 µM) | 4 | 250 (≈ 724 µM) | 250 (≈ 724 µM) | 62.5 (≈ 181 µM) | 250 (≈ 724 µM) | 125 (≈ 362 µM) | 250 (≈ 724 µM) | 125 (≈ 362 µM) | 250 (≈ 724 µM) | 4 | 250 (≈ 724 µM) | 250 (≈ 724 µM) |
| CCOC(=O)C1=C(C)NC(C)=C(C(=O)OCC)C1c1ccc(O)cc1 | 5000 (≈ 14500 µM) | 125 (≈ 362 µM) | 4 | 2500 (≈ 7240 µM) | 5000 (≈ 14500 µM) | 125 (≈ 362 µM) | 2500 (≈ 7240 µM) | 2500 (≈ 7240 µM) | 2500 (≈ 7240 µM) | 2500 (≈ 7240 µM) | 2500 (≈ 7240 µM) | 4 | 2500 (≈ 7240 µM) | 5000 (≈ 14500 µM) |
| CCOC(=O)C1=C(C)NC(C)=C(C(=O)OCC)C1c1ccc(OC)cc1 | 5000 (≈ 13900 µM) | 125 (≈ 348 µM) | 4 | 2500 (≈ 6960 µM) | 5000 (≈ 13900 µM) | 62.5 (≈ 174 µM) | 1250 (≈ 3480 µM) | 1250 (≈ 3480 µM) | 2500 (≈ 6960 µM) | 1250 (≈ 3480 µM) | 1250 (≈ 3480 µM) | 4 | 2500 (≈ 6960 µM) | 2500 (≈ 6960 µM) |
| CCOC(=O)C1=C(C)NC(C)=C(C(=O)OCC)C1c1ccc(OC)c(OC)c1 | 1250 (≈ 3210 µM) | 125 (≈ 321 µM) | 4 | 1250 (≈ 3210 µM) | 1250 (≈ 3210 µM) | 125 (≈ 321 µM) | 2500 (≈ 6420 µM) | 2500 (≈ 6420 µM) | 1250 (≈ 3210 µM) | 2500 (≈ 6420 µM) | 125 (≈ 321 µM) | 4 | 1250 (≈ 3210 µM) | 1250 (≈ 3210 µM) |
| CCOC(=O)C1=C(C)NC(C)=C(C(=O)OCC)C1c1ccccc1Cl | 250 (≈ 687 µM) | 125 (≈ 344 µM) | 4 | 125 (≈ 344 µM) | 250 (≈ 687 µM) | 125 (≈ 344 µM) | 250 (≈ 687 µM) | 250 (≈ 687 µM) | 125 (≈ 344 µM) | 250 (≈ 687 µM) | 250 (≈ 687 µM) | 4 | 125 (≈ 344 µM) | 250 (≈ 687 µM) |
| CCOC(=O)C1=C(C)NC(C)=C(C(=O)OCC)C1c1cccc(O)c1 | 500 (≈ 1450 µM) | 62.5 (≈ 181 µM) | 4 | 1250 (≈ 3620 µM) | 1250 (≈ 3620 µM) | 125 (≈ 362 µM) | 500 (≈ 1450 µM) | 500 (≈ 1450 µM) | 1250 (≈ 3620 µM) | 500 (≈ 1450 µM) | 1250 (≈ 3620 µM) | 4 | 1250 (≈ 3620 µM) | 125 (≈ 362 µM) |
| CCOC(=O)C1=C(C)NC(C)=C(C(=O)OCC)C1c1ccc(O)c(OC)c1 | 125 (≈ 333 µM) | 31.2 (≈ 83.2 µM) | 4 | 125 (≈ 333 µM) | 125 (≈ 333 µM) | 31.2 (≈ 83.2 µM) | 125 (≈ 333 µM) | 125 (≈ 333 µM) | 125 (≈ 333 µM) | 125 (≈ 333 µM) | 125 (≈ 333 µM) | 4 | 125 (≈ 333 µM) | 125 (≈ 333 µM) |
| CCOC(=O)C1=C(C)NC(C)=C(C(=O)OCC)C1c1cc(OC)c(OC)c(OC)c1 | 1250 (≈ 2980 µM) | 250 (≈ 596 µM) | 4 | 1250 (≈ 2980 µM) | 2500 (≈ 5960 µM) | 250 (≈ 596 µM) | 2500 (≈ 5960 µM) | 2500 (≈ 5960 µM) | 1250 (≈ 2980 µM) | 2500 (≈ 5960 µM) | 1250 (≈ 2980 µM) | 4 | 2500 (≈ 5960 µM) | 1250 (≈ 2980 µM) |
| CCOC(=O)C1=C(C)NC(C)=C(C(=O)OCC)C1c1cc(OC)ccc1OC | 500 (≈ 1280 µM) | 125 (≈ 321 µM) | 4 | 250 (≈ 642 µM) | 2500 (≈ 6420 µM) | 250 (≈ 642 µM) | 500 (≈ 1280 µM) | 250 (≈ 642 µM) | 250 (≈ 642 µM) | 250 (≈ 642 µM) | 2500 (≈ 6420 µM) | 4 | 250 (≈ 642 µM) | 500 (≈ 1280 µM) |
| CC1(C)S[C@@H]2[C@H](NC(=O)[C@H](N)c3ccccc3)C(=O)N2[C@H]1C(=O)O [AMPICILLIN] | 5 (≈ 14.3 µM) | > 2000 | – | 15 (≈ 42.9 µM) | 2 (≈ 5.72 µM) | > 2000 | 200 (≈ 572 µM) | 25 (≈ 71.5 µM) | 10 (≈ 28.6 µM) | 500 (≈ 1430 µM) | 25 (≈ 71.5 µM) | – | 0.06 (≈ 0.172 µM) | 50 (≈ 143 µM) |
